Tests used:
endometriomas = experiment: Human clinical trial: resolution or growth of endometriomas followed by monthly ultrasound under TFI chemotherapy and antioxidant counter therapy; assay type: in vivo
Excerpt: When TFI chemotherapy is stopped to allow the thyroid a rest, we see a general improvement in iron scavenging at lower dose rates afterwards (which hints at a multi-step process that can be slowly poisoned, most probably by I^− to tri-iodide) and usually a recovery to visibility in those in-completely resolved endometriomas during this treatment hiatus. We timed this 3rd party evidence trial to happen as we approached a pre-planned thyroid rest period, taking monthly ultrasounds before to position each active endometrioma as closely as possible, and include three such rest periods, plus two thyroid examinations.
The simplest test was to gently down-regulate the CMI in a patient while that patient was still on TFI chemotherapy, and to observe what happens next. The patient then took 800 international units of vitamin E a day (as a tocopherol). […] A second antioxidant, dietary zinc (10 mg/day), was added to the regimen. Use of both antioxidants allowed us to say that this was not a special case for either antioxidant, though the cumulative effects were very obvious. Vitamin E was stopped two weeks before zinc, to provide a period of zinc only. TFI-induced resolution was still blocked.
The patient then went into their thyroid rest period, and as usual a few recently but incompletely resolved endometriomas developed, but so did two that had been thought resolved from two years ago for a total of five.

[1] = Ghent et al (1993); U.S. Pat. No. 4,555,347; cited from earlier work
[2] = system: normal self-cells of the uterus; experiment: Transvaginal ultrasound of uterine lining / normal self-cells of the uterus, and menstrual period cycle, in the same patient; assay type: in vivo, human; settings: patient taking aspirin with TFI
Excerpt: In using transvaginal ultra sound, it was possible to view and compare the thickness of the uterine lining, and no abnormal change was observed despite all the activity in the peritoneal cavity.
It should be noted that use of counter chemotherapy produced no change in those similar normal self-cells of the uterus as detectable by ultrasound. All of these ultrasounds were taken at 3 to four days after the patient's periods, except the last one as they had their period cycle extended by taking aspirin.

[Zn] [zinc]
TFI-induced resolution of endometriomas (endometriomas; period of zinc only (vitamin E stopped two weeks before zinc), dietary zinc 10 mg/day, on TFI): still blocked

Cc1c(C)c2c(c(C)c1O)CC[C@@](C)(CCC[C@H](C)CCC[C@H](C)CCCC(C)C)O2 [vitamin E, alpha tocopherol]
change in endometriomas (number and size) (endometriomas; patient still on TFI chemotherapy, 800 international units of vitamin E a day): Minor change was observed, with new endometriomas developing and old ones rapidly increasing in size

II [TFI, thermodynamically free iodine]
toxicity compared with other forms of iodine [1]: least toxicity of all forms of iodine | clean-up of endometrial cell debris, aberrant organ attachments, endometriomas and stratum functional cell masses (endometriomas; clinical tests (FIG. 2), patients, administration of iodine): effective | time for resolution of endometriomas (Stage I to Stage IV process) (endometriomas; otherwise takes about 15 years without TFI): about one or two | pain (endometriomas; use of TFI in the endometriosis patient): relief from pain

CC(=O)Oc1ccccc1C(=O)O [aspirin, acetylsalicylic acid]
period cycle [2]: extended

Source: patent publication US20090214434A1, “METHOD OF DETECTING AND TREATING ALLOGENIC CELLS RESPONSIBLE FOR ENDOMETRIOSIS” (priority 2004, published 2009)
